Measured values published in US9981975B2, “Pyrrolotriazine compounds as tam inhibitors” (Incyte Corporation, priority 2016, dated 2018).

How the values were obtained:
Format in all cases: biochemical
phosphor-Axl = phosphor-Axl (Homo sapiens (Human), UniProt P30530); assay: TAM Enzymatic Assay (HTRF), Axl; conditions: recombinant autophosphorylated Axl, 60 min, room temperature
c-Mer = c-Mer (Homo sapiens (Human), UniProt Q12866); assay: TAM Enzymatic Assay (HTRF), Mer; conditions: 60 min, room temperature
Experimental: The kinase assay buffer contained 50 mM HEPES, pH7.5, 10 mM MgCl2, 1 mM EGTA, 0.01% NP-40 and 2 mM DTT. 0.1 ul test compounds dissolved in DMSO were transferred from compound plates to white 384-well assay plates (Greiner […] plates). […] 4 ul enzyme solution (or assay buffer for the enzyme blank) was added to the appropriate wells in each plate, and then 4 ul/well substrate solution was added to initiate the reaction. The plate was protected from light and incubated at room temperature for 60 min. […] The plate was incubated for 1 h at room temperature, and HTRF (homogenous time resolved fluorescence) signal was measured on a PHERAstar FS plate reader (BMG labtech). Percentage of inhibition was calculated for each concentration and IC50 value was generated from curve fitting with GraphPad Prism software.

Tyro3 = Tyro3 (Homo sapiens (Human), UniProt Q06418); assay: TAM Enzymatic Assay (HTRF), Tyro3; conditions: Tyro3, 60 min, room temperature
Method in brief: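 Reactions ran 60 min at room temperature, protected from light, started by substrate addition to enzyme plus DMSO compound, in pH 7.5 HEPES buffer with 10 mM MgCl2, 1 mM EGTA, 0.01% NP-40, 2 mM DTT.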

c-Mer, sequence (Q12866 21-999): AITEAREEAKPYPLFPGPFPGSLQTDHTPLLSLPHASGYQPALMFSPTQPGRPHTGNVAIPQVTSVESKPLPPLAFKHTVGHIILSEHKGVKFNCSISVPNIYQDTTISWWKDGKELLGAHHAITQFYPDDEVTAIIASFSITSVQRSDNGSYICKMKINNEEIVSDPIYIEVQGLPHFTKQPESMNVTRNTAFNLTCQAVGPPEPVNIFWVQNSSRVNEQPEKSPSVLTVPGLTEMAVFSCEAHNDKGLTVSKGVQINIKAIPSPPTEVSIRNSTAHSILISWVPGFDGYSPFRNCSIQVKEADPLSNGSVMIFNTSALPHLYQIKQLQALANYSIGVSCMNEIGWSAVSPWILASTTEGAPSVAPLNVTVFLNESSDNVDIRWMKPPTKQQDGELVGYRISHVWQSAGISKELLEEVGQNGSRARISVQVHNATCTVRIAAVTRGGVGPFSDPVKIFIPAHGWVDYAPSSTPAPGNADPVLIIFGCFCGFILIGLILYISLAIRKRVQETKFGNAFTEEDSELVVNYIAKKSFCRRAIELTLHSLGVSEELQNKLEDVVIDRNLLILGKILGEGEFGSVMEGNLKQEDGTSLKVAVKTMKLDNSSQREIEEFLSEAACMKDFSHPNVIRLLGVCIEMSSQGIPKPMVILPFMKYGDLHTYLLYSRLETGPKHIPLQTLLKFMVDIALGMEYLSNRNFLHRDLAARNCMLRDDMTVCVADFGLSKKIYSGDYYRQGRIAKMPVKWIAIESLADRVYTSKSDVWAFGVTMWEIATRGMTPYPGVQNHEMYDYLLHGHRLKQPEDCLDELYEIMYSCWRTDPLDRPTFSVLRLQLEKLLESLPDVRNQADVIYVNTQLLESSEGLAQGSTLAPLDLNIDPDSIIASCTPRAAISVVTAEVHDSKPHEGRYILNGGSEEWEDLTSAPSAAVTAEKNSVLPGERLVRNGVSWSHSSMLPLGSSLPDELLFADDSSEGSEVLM
phosphor-Axl, sequence (P30530 26-894): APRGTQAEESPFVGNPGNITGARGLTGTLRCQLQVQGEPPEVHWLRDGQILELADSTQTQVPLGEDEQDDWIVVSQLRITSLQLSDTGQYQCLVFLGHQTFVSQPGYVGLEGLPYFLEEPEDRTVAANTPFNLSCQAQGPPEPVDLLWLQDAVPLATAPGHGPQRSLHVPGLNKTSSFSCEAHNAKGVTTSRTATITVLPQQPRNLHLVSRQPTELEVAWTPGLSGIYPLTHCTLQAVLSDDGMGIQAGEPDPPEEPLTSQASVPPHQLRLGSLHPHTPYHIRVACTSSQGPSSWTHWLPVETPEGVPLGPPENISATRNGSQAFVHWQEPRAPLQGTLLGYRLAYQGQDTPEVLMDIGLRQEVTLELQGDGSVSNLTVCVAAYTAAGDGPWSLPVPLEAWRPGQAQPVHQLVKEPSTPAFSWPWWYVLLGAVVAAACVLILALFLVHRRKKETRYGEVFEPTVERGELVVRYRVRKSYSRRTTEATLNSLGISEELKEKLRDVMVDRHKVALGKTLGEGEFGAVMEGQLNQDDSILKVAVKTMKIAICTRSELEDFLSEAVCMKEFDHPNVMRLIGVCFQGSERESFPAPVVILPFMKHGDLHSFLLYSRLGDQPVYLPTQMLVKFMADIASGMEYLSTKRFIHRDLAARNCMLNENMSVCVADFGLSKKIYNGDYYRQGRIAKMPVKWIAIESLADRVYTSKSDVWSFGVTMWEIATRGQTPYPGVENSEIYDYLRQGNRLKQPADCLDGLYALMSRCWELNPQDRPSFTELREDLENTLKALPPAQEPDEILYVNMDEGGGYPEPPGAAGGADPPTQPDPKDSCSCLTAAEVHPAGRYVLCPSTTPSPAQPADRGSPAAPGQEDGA
Tyro3, sequence (Q06418 41-890): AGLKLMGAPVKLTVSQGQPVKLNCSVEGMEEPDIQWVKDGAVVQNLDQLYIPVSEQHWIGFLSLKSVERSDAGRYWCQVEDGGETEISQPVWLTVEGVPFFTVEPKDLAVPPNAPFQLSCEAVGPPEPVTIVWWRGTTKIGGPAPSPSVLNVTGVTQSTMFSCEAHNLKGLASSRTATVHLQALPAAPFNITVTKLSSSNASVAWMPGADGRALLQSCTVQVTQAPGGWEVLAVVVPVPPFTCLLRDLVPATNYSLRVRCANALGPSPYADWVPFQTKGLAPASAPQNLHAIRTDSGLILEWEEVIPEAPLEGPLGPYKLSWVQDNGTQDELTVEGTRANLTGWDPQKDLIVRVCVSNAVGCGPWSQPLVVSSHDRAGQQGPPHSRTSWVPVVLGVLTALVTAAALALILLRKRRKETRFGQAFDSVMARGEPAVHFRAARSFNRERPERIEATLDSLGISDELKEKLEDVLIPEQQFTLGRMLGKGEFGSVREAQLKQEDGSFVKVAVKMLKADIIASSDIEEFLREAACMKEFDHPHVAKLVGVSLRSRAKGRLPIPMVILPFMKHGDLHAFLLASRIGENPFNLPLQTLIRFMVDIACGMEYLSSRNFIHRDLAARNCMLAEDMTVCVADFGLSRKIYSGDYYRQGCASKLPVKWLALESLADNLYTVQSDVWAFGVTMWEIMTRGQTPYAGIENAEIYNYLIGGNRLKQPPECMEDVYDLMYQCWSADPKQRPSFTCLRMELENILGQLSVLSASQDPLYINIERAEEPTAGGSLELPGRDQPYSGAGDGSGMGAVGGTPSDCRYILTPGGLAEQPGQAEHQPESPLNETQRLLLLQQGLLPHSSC

| Compound | IC50 (phosphor-Axl) | IC50 (c-Mer) | IC50 (Tyro3) |
| --- | --- | --- | --- |
| CCc1cc(-c2ccc(NC(=O)c3cccn(Cc4ccccc4)c3=O)cc2)c2c(N)ncnn12 [Example 5, N-[4-(4-Amino-7-ethylpyrrolo[2,1-f][1,2,4]triazin-5-yl)phenyl]-1-benzyl-2-oxo-1,2-dihydropyridine-3-carboxamide] | > 100 nM | > 100 nM | > 100 nM |
| Nc1ncnn2c(C3CCOCC3)cc(-c3ccc(NC(=O)c4cccn(-c5ccc(F)cc5)c4=O)cc3)c12 [Example 14, N-{4-[4-Amino-7-(tetrahydro-2H-pyran-4-yl)pyrrolo[2,1-f][1,2,4]triazin-5-yl]phenyl}-1-(4-fluorophenyl)-2-oxo-1,2-dihydropyridine-3-carboxamide] | ≤ 5 nM | ≤ 5 nM | 10 to 100 nM |
| Nc1ncnn2c(C3CCOCC3)cc(-c3ccc(NC(=O)c4cccn(-c5ccc(F)cc5)c4=O)cc3F)c12 [Example 16, N-{4-[4-Amino-7-(tetrahydro-2H-pyran-4-yl)pyrrolo[2,1-f][1,2,4]triazin-5-yl]-3-fluorophenyl}-1-(4-fluorophenyl)-2-oxo-1,2-dihydropyridine-3-carboxamide] | ≤ 5 nM | ≤ 5 nM | 10 to 100 nM |
| Nc1ncnn2c1c(-c1ccc(NC(=O)c3cccn(-c4ccc(F)cc4)c3=O)cc1F)cc2[C@H]1CC[C@@H](O)CC1 [Example 19, N-{4-[4-Amino-7-(cis-4-hydroxycyclohexyl)pyrrolo[2,1-f][1,2,4]triazin-5-yl]-3-fluorophenyl}-1-(4-fluorophenyl)-2-oxo-1,2-dihydropyridine-3-carboxamide] | ≤ 5 nM | ≤ 5 nM | ≤ 5 nM |
| CN1CCC(c2cc(-c3ccc(NC(=O)c4cccn(-c5ccccc5)c4=O)cc3F)c3c(N)ncnn23)CC1 [Example 22, N-{4-[4-Amino-7-(1-methylpiperidin-4-yl)pyrrolo[2,1-f][1,2,4]triazin-5-yl]-3-fluorophenyl}-2-oxo-1-phenyl-1,2-dihydropyridine-3-carboxamide] | ≤ 5 nM | ≤ 5 nM | 10 to 100 nM |
| CN1CCC(c2cc(-c3ccc(NC(=O)c4cccn(-c5ccc(F)cc5)c4=O)cc3F)c3c(N)ncnn23)CC1 [Example 23, N-{4-[4-Amino-7-(1-methylpiperidin-4-yl)pyrrolo[2,1-f][1,2,4]triazin-5-yl]-3-fluorophenyl}-1-(4-fluorophenyl)-2-oxo-1,2-dihydropyridine-3-carboxamide] | ≤ 5 nM | ≤ 5 nM | 10 to 100 nM |
| CC(=O)N1CCC(c2cc(-c3ccc(NC(=O)c4cccn(-c5ccccc5)c4=O)cc3)c3c(N)ncnn23)CC1 [Example 24, N-{4-[7-(1-Acetylpiperidin-4-yl)-4-aminopyrrolo[2,1-f][1,2,4]triazin-5-yl]phenyl}-2-oxo-1-phenyl-1,2-dihydropyridine-3-carboxamide] | ≤ 5 nM | ≤ 5 nM | 10 to 100 nM |
| CC(=O)N1CCC(c2cc(-c3ccc(NC(=O)c4cccn(-c5ccc(F)cc5)c4=O)cc3)c3c(N)ncnn23)CC1 [Example 25, N-{4-[7-(1-Acetylpiperidin-4-yl)-4-aminopyrrolo[2,1-f][1,2,4]triazin-5-yl]phenyl}-1-(4-fluorophenyl)-2-oxo-1,2-dihydropyridine-3-carboxamide] | ≤ 5 nM | ≤ 5 nM | 10 to 100 nM |
| CC(=O)N1CCC(c2cc(-c3ccc(NC(=O)c4cccn(-c5ccccc5)c4=O)cc3F)c3c(N)ncnn23)CC1 [Example 26, N-{4-[7-(1-Acetylpiperidin-4-yl)-4-aminopyrrolo[2,1-f][1,2,4]triazin-5-yl]-3-fluorophenyl}-2-oxo-1-phenyl-1,2-dihydropyridine-3-carboxamide] | ≤ 5 nM | ≤ 5 nM | 10 to 100 nM |

Results, then the molecule that gave them:

| IC50 (phosphor-Axl) | IC50 (c-Mer) | IC50 (Tyro3) | Compound |
| --- | --- | --- | --- |
| ≤ 5 nM | ≤ 5 nM | 10 to 100 nM | CC(=O)N1CCC(c2cc(-c3ccc(NC(=O)c4cccn(-c5ccc(F)cc5)c4=O)cc3F)c3c(N)ncnn23)CC1 [Example 27, N-{4-[7-(1-Acetylpiperidin-4-yl)-4-aminopyrrolo[2,1-f][1,2,4]triazin-5-yl]-3-fluorophenyl}-1-(4-fluorophenyl)-2-oxo-1,2-dihydropyridine-3-carboxamide] |
| ≤ 5 nM | ≤ 5 nM | > 100 nM | N#C[C@H]1CC[C@@H](c2cc(-c3ccc(NC(=O)c4cccn(-c5ccccc5)c4=O)cc3)c3c(N)ncnn32)CC1 [Example 28, N-{4-[4-Amino-7-(cis-4-cyanocyclohexyl)pyrrolo[2,1-f][1,2,4]triazin-5-yl]phenyl}-2-oxo-1-phenyl-1,2-dihydropyridine-3-carboxamide] |
| ≤ 5 nM | ≤ 5 nM | 10 to 100 nM | N#C[C@H]1CC[C@@H](c2cc(-c3ccc(NC(=O)c4cccn(-c5ccc(F)cc5)c4=O)cc3)c3c(N)ncnn32)CC1 [Example 29, N-{4-[4-Amino-7-(cis-4-cyanocyclohexyl)pyrrolo[2,1-f][1,2,4]triazin-5-yl]phenyl}-1-(4-fluorophenyl)-2-oxo-1,2-dihydropyridine-3-carboxamide] |
| ≤ 5 nM | ≤ 5 nM | 10 to 100 nM | N#C[C@H]1CC[C@@H](c2cc(-c3ccc(NC(=O)c4cccn(-c5ccccc5)c4=O)cc3F)c3c(N)ncnn32)CC1 [Example 30, N-{4-[4-Amino-7-(cis-4-cyanocyclohexyl)pyrrolo[2,1-f][1,2,4]triazin-5-yl]-3-fluorophenyl}-2-oxo-1-phenyl-1,2-dihydropyridine-3-carboxamide] |
| ≤ 5 nM | ≤ 5 nM | 10 to 100 nM | Nc1ncnn2c(C3CCNCC3)cc(-c3ccc(NC(=O)c4cccn(-c5ccccc5)c4=O)cc3)c12 [Example 32, N-[4-(4-Amino-7-piperidin-4-ylpyrrolo[2,1-f][1,2,4]triazin-5-yl)phenyl]-2-oxo-1-phenyl-1,2-dihydropyridine-3-carboxamide] |
| ≤ 5 nM | ≤ 5 nM | 10 to 100 nM | Nc1ncnn2c(C3CCNCC3)cc(-c3ccc(NC(=O)c4cccn(-c5ccc(F)cc5)c4=O)cc3)c12 [Example 33, N-[4-(4-Amino-7-piperidin-4-ylpyrrolo[2,1-f][1,2,4]triazin-5-yl)phenyl]-1-(4-fluorophenyl)-2-oxo-1,2-dihydropyridine-3-carboxamide] |
| ≤ 5 nM | ≤ 5 nM | 10 to 100 nM | Nc1ncnn2c(C3CCNCC3)cc(-c3ccc(NC(=O)c4cccn(-c5ccccc5)c4=O)cc3F)c12 [Example 34, N-[4-(4-Amino-7-piperidin-4-ylpyrrolo[2,1-f][1,2,4]triazin-5-yl)-3-fluorophenyl]-2-oxo-1-phenyl-1,2-dihydropyridine-3-carboxamide] |
| ≤ 5 nM | ≤ 5 nM | 5 to 10 nM | Nc1ncnn2c(C3CCNCC3)cc(-c3ccc(NC(=O)c4cccn(-c5ccc(F)cc5)c4=O)cc3F)c12 [Example 35, N-[4-(4-Amino-7-piperidin-4-ylpyrrolo[2,1-f][1,2,4]triazin-5-yl)-3-fluorophenyl]-1-(4-fluorophenyl)-2-oxo-1,2-dihydropyridine-3-carboxamide] |
| ≤ 5 nM | ≤ 5 nM | 10 to 100 nM | COC(=O)N1CCC(c2cc(-c3ccc(NC(=O)c4cccn(-c5ccc(F)cc5)c4=O)cc3)c3c(N)ncnn23)CC1 [Example 37, Methyl 4-{4-amino-5-[4-({[1-(4-fluorophenyl)-2-oxo-1,2-dihydropyridin-3-yl]carbonyl}amino)phenyl]pyrrolo[2,1-f][1,2,4]triazin-7-yl}piperidine-1-carboxylate] |
| ≤ 5 nM | ≤ 5 nM | 10 to 100 nM | COC(=O)N1CCC(c2cc(-c3ccc(NC(=O)c4cccn(-c5ccccc5)c4=O)cc3F)c3c(N)ncnn23)CC1 [Example 38, Methyl 4-[4-amino-5-(2-fluoro-4-{[(2-oxo-1-phenyl-1,2-dihydropyridin-3-yl)carbonyl]amino}phenyl)pyrrolo[2,1-f][1,2,4]triazin-7-yl]piperidine-1-carboxylate] |
| ≤ 5 nM | ≤ 5 nM | 10 to 100 nM | COC(=O)N1CCC(c2cc(-c3ccc(NC(=O)c4cccn(-c5ccc(F)cc5)c4=O)cc3F)c3c(N)ncnn23)CC1 [Example 39, Methyl 4-{4-amino-5-[2-fluoro-4-({[1-(4-fluorophenyl)-2-oxo-1,2-dihydropyridin-3-yl]carbonyl}amino)phenyl]pyrrolo[2,1-f][1,2,4]triazin-7-yl}piperidine-1-carboxylate] |
| ≤ 5 nM | ≤ 5 nM | 10 to 100 nM | CS(=O)(=O)N1CCC(c2cc(-c3ccc(NC(=O)c4cccn(-c5ccc(F)cc5)c4=O)cc3)c3c(N)ncnn23)CC1 [Example 41, N-(4-{4-Amino-7-[1-(methylsulfonyl)piperidin-4-yl]pyrrolo[2,1-f][1,2,4]triazin-5-yl}phenyl)-1-(4-fluorophenyl)-2-oxo-1,2-dihydropyridine-3-carboxamide] |
| ≤ 5 nM | ≤ 5 nM | 10 to 100 nM | CS(=O)(=O)N1CCC(c2cc(-c3ccc(NC(=O)c4cccn(-c5ccccc5)c4=O)cc3F)c3c(N)ncnn23)CC1 [Example 42] |
| ≤ 5 nM | ≤ 5 nM | 10 to 100 nM | CS(=O)(=O)N1CCC(c2cc(-c3ccc(NC(=O)c4cccn(-c5ccc(F)cc5)c4=O)cc3F)c3c(N)ncnn23)CC1 [Example 43] |
